Data reported in US6958321B2, “Isolation, characterization, cloning and use of a mushroom lectin” (The Regents of the University of Michigan, priority 2001, dated 2005).

T1: alpha-Galactosidase-digested alpha2-macroglobulin glycoprotein (from volunteer 4) (human, UniProt P01023 24-1474, terminal alpha-galactose removed with alpha-galactosidase)
T1 construct: mature; also called alpha-Galactosidase-digested glycoprotein from volunteer 4; treated fractions containing principally alpha2-macroglobulin
T1 sequence (looked up): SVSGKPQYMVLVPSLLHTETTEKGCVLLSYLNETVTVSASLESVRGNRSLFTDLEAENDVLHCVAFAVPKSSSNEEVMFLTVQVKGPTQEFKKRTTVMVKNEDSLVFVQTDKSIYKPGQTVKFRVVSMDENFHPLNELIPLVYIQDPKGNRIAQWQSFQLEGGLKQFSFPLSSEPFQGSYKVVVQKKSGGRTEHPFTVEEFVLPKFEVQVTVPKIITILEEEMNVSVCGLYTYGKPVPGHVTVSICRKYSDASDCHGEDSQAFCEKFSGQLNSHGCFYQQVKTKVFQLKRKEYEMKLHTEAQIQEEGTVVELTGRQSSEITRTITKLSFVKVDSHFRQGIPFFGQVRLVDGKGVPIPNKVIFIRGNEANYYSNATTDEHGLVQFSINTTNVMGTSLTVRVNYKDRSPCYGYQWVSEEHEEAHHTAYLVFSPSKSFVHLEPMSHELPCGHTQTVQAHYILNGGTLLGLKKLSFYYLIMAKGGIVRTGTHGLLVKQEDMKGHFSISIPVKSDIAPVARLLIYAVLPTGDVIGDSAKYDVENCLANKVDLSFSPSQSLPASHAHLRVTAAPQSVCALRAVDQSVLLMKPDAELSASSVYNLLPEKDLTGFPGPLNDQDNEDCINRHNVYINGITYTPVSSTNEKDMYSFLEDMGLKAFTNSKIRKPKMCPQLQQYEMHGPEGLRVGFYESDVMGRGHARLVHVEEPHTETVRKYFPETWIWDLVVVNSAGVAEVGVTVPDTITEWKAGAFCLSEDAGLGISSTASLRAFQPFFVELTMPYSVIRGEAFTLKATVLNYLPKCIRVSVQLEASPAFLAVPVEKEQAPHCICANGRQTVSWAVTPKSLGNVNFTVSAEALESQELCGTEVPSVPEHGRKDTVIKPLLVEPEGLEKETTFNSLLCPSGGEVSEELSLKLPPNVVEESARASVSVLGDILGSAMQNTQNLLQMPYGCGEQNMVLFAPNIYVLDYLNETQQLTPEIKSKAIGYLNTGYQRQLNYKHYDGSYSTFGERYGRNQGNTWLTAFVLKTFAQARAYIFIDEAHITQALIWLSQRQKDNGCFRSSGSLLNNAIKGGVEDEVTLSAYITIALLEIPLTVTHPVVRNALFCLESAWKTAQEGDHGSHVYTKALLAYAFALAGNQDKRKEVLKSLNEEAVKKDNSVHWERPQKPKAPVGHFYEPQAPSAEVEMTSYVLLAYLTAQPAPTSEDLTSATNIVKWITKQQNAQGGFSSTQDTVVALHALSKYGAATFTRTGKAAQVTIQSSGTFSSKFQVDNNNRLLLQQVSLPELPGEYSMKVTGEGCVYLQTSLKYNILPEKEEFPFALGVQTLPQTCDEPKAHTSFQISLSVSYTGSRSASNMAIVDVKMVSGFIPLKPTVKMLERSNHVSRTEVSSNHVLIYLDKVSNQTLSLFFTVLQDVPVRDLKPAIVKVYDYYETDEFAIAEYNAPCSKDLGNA

T2: Asialofetuin (UniProt P12763 19-359, desialylated glycans with terminal Gal-beta-1,4-GlcNAc)
T2 sequence (looked up): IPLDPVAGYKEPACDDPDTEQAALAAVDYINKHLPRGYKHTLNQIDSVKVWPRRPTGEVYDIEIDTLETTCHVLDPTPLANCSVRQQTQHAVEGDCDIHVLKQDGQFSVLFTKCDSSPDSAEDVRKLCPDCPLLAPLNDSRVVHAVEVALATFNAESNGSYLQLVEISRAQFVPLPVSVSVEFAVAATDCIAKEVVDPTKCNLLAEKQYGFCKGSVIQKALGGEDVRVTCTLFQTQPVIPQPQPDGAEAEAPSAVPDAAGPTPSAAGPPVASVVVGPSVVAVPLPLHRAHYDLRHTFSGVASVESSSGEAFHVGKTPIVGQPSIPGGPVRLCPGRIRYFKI

B1: Ulex europaeus I lectin (other, UniProt P22972 1-243, looked up)
chain: SDDLSFKFKNFSQNGKDLSFQGDASVIETGVLQLNKVGNNLPDETGGIARYIAPIHIWNCNTGEVASFITSFSFFMETSANPKAATDGLTFFLAPPDSPLRRAGGYFGLFEDTKDNDSSYQTVAVEFDTIGSPVNFDDPGFPHIGIDVNRVKSINAERWNKRYGLNNVANVEIIYEASSKTLTASLTYPSDQTSISVTSIVDLKEILPEWVSVGFSGGTYIGRQATHEVLNWYFTSNLINTNS
notes: also called Ulex I
B2: Intact native Marasmius oreades agglutinin (MOA) prepared by the method of Example 2 (other)
chain: MSLRRGIYHIENAGVPSAIDLKDGSSSDGTPIVGWQFTPDTINWHQLWLAEPIPNVADTFTLCNLFSGTYMDLYNGSSEAGTAVNGWQGTAFTTNPHQLWTIKKSSDGTSYKIQNYGSKTFVDLVNGDSSDGAKIAGWTGTWDEGNPHQKWYFNRMSVSSAEAQAAIARNPHIHGTYRGYILDGEYLVLPNATFTQIWKDSGLPGSKWREQIYDCDDFAIAMKAAVGKWGADSWKANGFAIFCGVMLGVNKAGDAAHAYNFTLTKDHADIVFFEPQNGGYLNDIGYDSYMAFY
modifications: blocked N-terminus (possibly N-acetyl)
notes: also called native MOA; immobilized MOA
B3: Recombinant MOA: MOA expressed in E. coli from a pT7 vector and affinity purified (protein)
chain: B2 chain
B4: Lotus lectin (other, UniProt P19664 1-240, looked up)
chain: VSFNYTEFKDDGSLILQGDAKIWTDGRLAMPTDPLVNNPKTTRSAGRALYATPVPIWDSATGNVASFVTSFNFLFVIRELKYTPTDGLVFFLAPVGTEIPSGSTGGFLGIFDGSNGFNQFVAVEFDSYHNIWDPKSLRSSHVGIDVNSIMSLKAVNWNRVSGSLEKATIIYDSQTNILSVVMTSQNGQITTIYGTIDLKTVLPEKVSVGFSATTGNPEREKHDIYSWSFTSTLKEPEEQA

What was measured:
MOA = assay: Quantitative precipitation assay with MOA; type: binding, Marasmius oreades; conditions: 20 μg MOA, PBS pH 7.2, 48 hr at 4° C.
Method: In other embodiments, blood group specificity of MOA is determined by quantitative precipitation assays. Quantitative microprecipitation assays with soluble cyst blood group substances and inhibition of precipitation by sugar haptens were performed as described in Mo et al., [J. Biol. Chem. 275:10623 (2000)].
For quantitative precipitation assays, 20 μg of MOA and increasing amounts of glycoprotein or polysaccharide were used in a total volume of 120 to 200 μL, all in PBS/0.15 M NaCl. Quantitative carbohydrate hapten inhibition assays were conducted by adding increasing amounts of haptens to a mixture of MOA (20 μg) and type B blood group substance (5.0 μg). The reactions were incubated at 37° C. for an hour and then at 4° C. for 48 hours followed by centrifugation of the precipitates, washing, and determination of protein by the Lowry method [Lowry, O. H. et al., J. Biol. Chem. 193, 265-275 (1951)].
Varying amounts of blood group substances from 0 to 200 μg were incubated with 20 μg of MOA in a total volume of 150 μl of PBS (pH 7.2). After 48 hr at 4° C., the amounts of protein precipitated were quantified as described above. Solid squares indicate group A substance, solid circles indicate group B substance, and solid triangles indicate group O substance.
Various amounts of glycoconjugates, ranging from 0 to 100 μg were incubated with 20 μg of lectin in a total volume of 150 μl of PBS (pH 7.2). After 48 hr at 4° C., the amounts of protein precipitated were quantified, as described above. Solid circles indicate MOA interaction with laminin, solid crosses indicate MOA interaction with bovine thyroglobulin, solid squares indicate MOA interaction with C. alata galactomannan, solid triangles indicate MOA interaction with pigeon ovalbumin, open circles indicate MOA interaction with Ga1NAcα1,3Ga1β-polyacrylamide, open squares indicate GS I-B4 interaction with pigeon ovalbumin and closed inverted triangles indicate GS I-B4 interaction with Ga1NAcα1,3Ga1β-polyacrylamide.

immobilized MOA = assay: Binding to MOA-Sepharose 4B affinity column; parameters: species or system Marasmius oreades; conditions: washed with PBS, eluted with 20 mM diaminopropane
Source text: Further insight into the carbohydrate specificity of MOA was obtained by using immobilized MOA. Immobilization of MOA on a variety of supports is contemplated. In one embodiment, MOA is immobilized on a matrix that can be used in an affinity column (see below). In some embodiments, the matrix comprises Sepharose 4B beads. In some Embodiments, the MOA-conjugated Sepharose 4B beads are packed in a column for binding and affinity isolation and purification studies. Briefly, the MOA-Sepharose column is loaded with glycan, glycoconjugate or serum sample to be tested, then washed with an appropriate buffer (including but not limited to PBS). Bound components are eluted with a suitable elution buffer (including but not limited to 1,3-diaminopropane in NaCl), and the collected fractions are analyzed for the presence of protein or glycan (see Example 6 below). The fractions containing the bound components (eluted as described herein) can be pooled and concentrated.
MOA was immobilized on cyanogen bromide-activated Sepharose 4B as follows. 1.5 g of cyanogen bromide-activated Sepharose 4B was allowed to swell in 100 ml of 1 mM HCl solution for 30 min. The supernatant was removed and the swollen beads (6 ml) were filtered on a sintered funnel, washed several times with 100 ml of 1 mM HCl and finally with 20 ml of 0.1 M sodium bicarbonate buffer, pH 8.3, containing 0.5 M sodium chloride. The beads were quickly transferred to a plastic bottle containing 16.2 mg MOA in the same buffer (10 ml) containing 0.2 M lactose. The plastic bottle was shaken at room temperature for 6 hr and at 4° C. overnight. The beads were filtered on a sintered glass funnel, washed with the coupling buffer, and then shaken in 1 M ethanolamine (12 ml) at room temperature for 2.5 hr to cap all of the unreacted iminocarbonate groups. The beads were filtered, washed alternately with the coupling buffer then sodium acetate buffer (0.1 M, pH 4.0 containing 0.5 M NaCl) four times. A column (1×7 cm) packed with the beads was finally washed with PBS containing 0.04% sodium azide. The beads contained 2.3 mg MOA per ml Sepharose 4B, based on MOA remaining in solution.
In order to assess the binding of various glycans, glycoconjugates and serum samples to MOA-Sepharose, the following general procedure was used. The MOA-Sepharose column was loaded with glycan, glycoconjugate or serum sample (0.6-5 ml) and washed with PBS (15 ml). The bound components were eluted with 20 mM 1,3-diaminopropane in 0.15 M NaCl (15 ml). The fractions collected (1 ml) were neutralized with 1 M phosphoric acid (approximately 16 μl), and analyzed by either absorbance at 280 nm for protein, or by phenol-sulfuric acid assay, as described by Dubois et al. [Anal. Chem. 28: 350 (1956)] for the glycan. The column was finally washed thoroughly with PBS. The fractions containing the bound components were pooled and concentrated by Amicon ultrafiltration (Millipore Corp., Bedford, Mass.) using a membrane (YM10) of 10,000 molecular weight cut-off.

[1] = target: T1, alpha-Galactosidase-digested …; assay: agar gel diffusion, precipitin
Asialofetuin = target: T2, Asialofetuin; assay: affinity chromatography on MOA-Sepharose 4B, PBS wash then elution with 20 mM 1,3-diaminopropane in 0.15 M NaCl, A280 of 1 ml fractions
[2] = Solubility and activity of salt-free lyophilisates; type: physicochemical
Method: Purification of recombinant MOA and native intact MOA-Recombinant MOA was purified from the soluble fraction by absorption on a column of melibiose-Sepharose and elution by lactose. Further purification was carried out on an affinity column of Synsorb B. Except for the diaminopropane elution, all affinity purifications were carried out in PBS, pH 7.2, containing 1.25 mM EDTA. After purification, lectin solutions were dialyzed against distilled water and lyophilized. […] Intact native MOA was prepared with a purification procedure (Example 2) that utilized a protease inhibitor cocktail (product P8215, Sigma, St. Louis, Mo.) which was added at the level of 0.1 ml/100 ml extract buffer (instead of phenylmethylsulfonyl fluoride), all buffers lacked Ca^++ and contained 1.25 mM EDTA, and the initial extraction and ammonium sulfate fractionations were carried out under an atmosphere of argon.

Molecule | precipitation with MOA (MOA) | binding to MOA-Sepharose column (immobilized MOA) | other results
Galactomannan | did not precipitate | failed to bind | 
bovine thyroglobulin: bovine thyroglobulin, with Galα1,3Galβ1,4GlcNAc end groups | reacted strongly | bound tightly | 
laminin: Laminin purified from the EHS sarcoma, with Galα1,3Galβ1,4GlcNAc end groups | reacted strongly | bound tightly | 
B1 |  |  | binding result [1]: binds
B2 |  |  | binding result (Asialofetuin): no binding
B3 |  |  | solubility of salt-free lyophilisates ([2]; distilled water or buffer): readily soluble; agglutinating activity after lyophilisation ([2]; redissolved lyophilisates): retention of full agglutinating activity
B4 |  |  | binding result [1]: no binding
